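Briefly, cells in 96-well plates were exposed to five compound concentrations for 48 h, and endpoints were estimated by linear interpolation. The concentration for full growth arrest is given as TGI.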
How the values were obtained:
Experiment in all cases: NCI-60 cell line screen, 48 h
DU-145 prostate = test system: DU-145 prostate
BT-549 breast = test system: BT-549 breast
PC-3 prostate = test system: PC-3 prostate
UACC-62 melanoma = test system: UACC-62 melanoma
MDA-MB-231 breast = test system: MDA-MB-231 breast
SK-OV-3 ovarian = test system: SK-OV-3 ovarian
SK-MEL-5 melanoma = test system: SK-MEL-5 melanoma
OVCAR-3 ovarian = test system: OVCAR-3 ovarian
COLO 205 colon = test system: COLO 205 colon
SNB-75 CNS = test system: SNB-75 CNS
HOP-92 NSCLC = test system: HOP-92 NSCLC
MDA-MB-435 = test system: MDA-MB-435
SK-MEL-2 melanoma = test system: SK-MEL-2 melanoma
UACC-257 melanoma = test system: UACC-257 melanoma
LOX IMVI melanoma = test system: LOX IMVI melanoma
HCT-116 colon = test system: HCT-116 colon
786-0 renal = test system: 786-0 renal
EKVX NSCLC = test system: EKVX NSCLC
OVCAR-8 ovarian = test system: OVCAR-8 ovarian
HS 578T breast = test system: HS 578T breast
HCT-15 colon = test system: HCT-15 colon
NCI-H23 lung = test system: NCI-H23 lung
MOLT-4 leukemia = test system: MOLT-4 leukemia
K-562 leukemia = test system: K-562 leukemia
SN12C renal = test system: SN12C renal
ACHN renal = test system: ACHN renal
HOP-62 NSCLC = test system: HOP-62 NSCLC
SF-295 CNS = test system: SF-295 CNS
SK-MEL-28 melanoma = test system: SK-MEL-28 melanoma
MDA-N = test system: MDA-N
M14 melanoma = test system: M14 melanoma
NCI/ADR-RES ovarian = test system: NCI/ADR-RES ovarian
A549 NSCLC = test system: A549 NSCLC
IGROV1 ovarian = test system: IGROV1 ovarian
T-47D breast = test system: T-47D breast
MALME-3M melanoma = test system: MALME-3M melanoma
MCF7 breast = test system: MCF7 breast
SF-268 CNS = test system: SF-268 CNS
HL-60(TB) leukemia = test system: HL-60(TB) leukemia
TK-10 renal = test system: TK-10 renal
HT29 colon = test system: HT29 colon
OVCAR-4 ovarian = test system: OVCAR-4 ovarian
NCI-H522 lung = test system: NCI-H522 lung
OVCAR-5 ovarian = test system: OVCAR-5 ovarian
CCRF-CEM leukemia = test system: CCRF-CEM leukemia
NCI-H460 lung = test system: NCI-H460 lung
A498 renal = test system: A498 renal
RXF 393 renal = test system: RXF 393 renal
SW-620 colon = test system: SW-620 colon
U251 CNS = test system: U251 CNS
RPMI-8226 leukemia = test system: RPMI-8226 leukemia
SNB-19 CNS = test system: SNB-19 CNS
HCC-2998 colon = test system: HCC-2998 colon
CAKI-1 renal = test system: CAKI-1 renal
UO-31 renal = test system: UO-31 renal
KM12 colon = test system: KM12 colon
SF-539 CNS = test system: SF-539 CNS
NCI-H226 lung = test system: NCI-H226 lung
SR leukemia = test system: SR leukemia

COc1cc(/C=C2\N=C(c3ccccc3)N(c3ccc4c(c3)Sc3cc(N5C(=O)/C(=C/c6cc(OC)c(OC)c(OC)c6)N=C5c5ccccc5)ccc3N4)C2=O)cc(OC)c1OC
TGI (DU-145 prostate): > 100 µM | TGI (BT-549 breast): 55.6 µM | TGI (PC-3 prostate): 38.3 µM | TGI (UACC-62 melanoma): 31.4 µM | TGI (MDA-MB-231 breast): 67.8 µM | TGI (SK-OV-3 ovarian): 38.1 µM | TGI (SK-MEL-5 melanoma): 30.1 µM | TGI (OVCAR-3 ovarian): 40.7 µM | TGI (COLO 205 colon): 47.4 µM | TGI (SNB-75 CNS): 52.5 µM | TGI (HOP-92 NSCLC): 40.6 µM | TGI (MDA-MB-435): 33.6 µM | TGI (SK-MEL-2 melanoma): 36.5 µM | TGI (UACC-257 melanoma): 31.3 µM | TGI (LOX IMVI melanoma): 52 µM | TGI (HCT-116 colon): > 100 µM | TGI (786-0 renal): 40.9 µM | TGI (EKVX NSCLC): 54.6 µM | TGI (OVCAR-8 ovarian): 37.9 µM | TGI (HS 578T breast): 88.1 µM | TGI (HCT-15 colon): > 100 µM | TGI (NCI-H23 lung): 40.3 µM | TGI (MOLT-4 leukemia): > 100 µM | TGI (K-562 leukemia): 48.4 µM | TGI (SN12C renal): 51 µM | TGI (ACHN renal): 36.4 µM | TGI (HOP-62 NSCLC): 60.2 µM | TGI (SF-295 CNS): 47.9 µM | TGI (SK-MEL-28 melanoma): > 100 µM | TGI (MDA-N): 37.9 µM | TGI (M14 melanoma): 80.8 µM | TGI (NCI/ADR-RES ovarian): > 100 µM | TGI (A549 NSCLC): > 100 µM | TGI (IGROV1 ovarian): 32 µM | TGI (T-47D breast): 70.2 µM | TGI (MALME-3M melanoma): 41.1 µM | TGI (MCF7 breast): 37.1 µM | TGI (SF-268 CNS): 37.5 µM | TGI (HL-60(TB) leukemia): 65.3 µM | TGI (TK-10 renal): 30.9 µM | TGI (HT29 colon): > 100 µM | TGI (OVCAR-4 ovarian): 36.9 µM | TGI (NCI-H522 lung): 42.5 µM | TGI (OVCAR-5 ovarian): 39.6 µM | TGI (CCRF-CEM leukemia): 57.3 µM | TGI (NCI-H460 lung): > 100 µM | TGI (A498 renal): 43.1 µM | TGI (RXF 393 renal): 46.1 µM | TGI (SW-620 colon): > 100 µM | TGI (U251 CNS): 44.2 µM | TGI (RPMI-8226 leukemia): 88.9 µM | TGI (SNB-19 CNS): 39.8 µM | TGI (HCC-2998 colon): 50.6 µM | TGI (CAKI-1 renal): 37.1 µM | TGI (UO-31 renal): > 100 µM | TGI (KM12 colon): > 100 µM

CCCCCCCCOP(=O)(O)OP(=O)(O)OCC1OC(n2ccc(N)nc2=O)C(O)C1O (stereo unspecified)
TGI (BT-549 breast): > 100 µM | TGI (PC-3 prostate): > 100 µM | TGI (UACC-62 melanoma): > 100 µM | TGI (MDA-MB-231 breast): > 100 µM | TGI (SK-OV-3 ovarian): > 100 µM | TGI (SK-MEL-5 melanoma): > 100 µM | TGI (OVCAR-3 ovarian): > 100 µM | TGI (COLO 205 colon): > 100 µM | TGI (SNB-75 CNS): > 100 µM | TGI (HOP-92 NSCLC): > 100 µM | TGI (MDA-MB-435): > 100 µM | TGI (SK-MEL-2 melanoma): > 100 µM | TGI (UACC-257 melanoma): > 100 µM | TGI (LOX IMVI melanoma): > 100 µM | TGI (HCT-116 colon): > 100 µM | TGI (786-0 renal): > 100 µM | TGI (EKVX NSCLC): > 100 µM | TGI (OVCAR-8 ovarian): > 100 µM | TGI (HS 578T breast): > 100 µM | TGI (HCT-15 colon): > 100 µM | TGI (NCI-H23 lung): > 100 µM | TGI (MOLT-4 leukemia): > 100 µM | TGI (K-562 leukemia): > 100 µM | TGI (SN12C renal): > 100 µM | TGI (ACHN renal): > 100 µM | TGI (HOP-62 NSCLC): > 100 µM | TGI (SF-295 CNS): > 100 µM | TGI (SK-MEL-28 melanoma): > 100 µM | TGI (MDA-N): > 100 µM | TGI (M14 melanoma): > 100 µM | TGI (NCI/ADR-RES ovarian): > 100 µM | TGI (A549 NSCLC): > 100 µM | TGI (IGROV1 ovarian): > 100 µM | TGI (T-47D breast): > 100 µM | TGI (MALME-3M melanoma): > 100 µM | TGI (MCF7 breast): > 100 µM | TGI (SF-268 CNS): > 100 µM | TGI (HL-60(TB) leukemia): > 100 µM | TGI (TK-10 renal): > 100 µM | TGI (SF-539 CNS): > 100 µM | TGI (HT29 colon): > 100 µM | TGI (OVCAR-4 ovarian): > 100 µM | TGI (NCI-H226 lung): > 100 µM | TGI (OVCAR-5 ovarian): > 100 µM | TGI (CCRF-CEM leukemia): > 100 µM | TGI (NCI-H460 lung): > 100 µM | TGI (A498 renal): > 100 µM | TGI (RXF 393 renal): > 100 µM | TGI (SW-620 colon): > 100 µM | TGI (U251 CNS): > 100 µM | TGI (RPMI-8226 leukemia): > 100 µM | TGI (SNB-19 CNS): > 100 µM | TGI (HCC-2998 colon): > 100 µM | TGI (CAKI-1 renal): > 100 µM | TGI (UO-31 renal): > 100 µM | TGI (KM12 colon): > 100 µM

O=C(O)[C@@]1(Cc2ccc(O)cc2)C[C@@H]2Cc3ccccc3N2N1
TGI (DU-145 prostate): > 100 µM | TGI (BT-549 breast): > 100 µM | TGI (PC-3 prostate): > 100 µM | TGI (UACC-62 melanoma): > 100 µM | TGI (MDA-MB-231 breast): > 100 µM | TGI (SK-OV-3 ovarian): > 100 µM | TGI (SK-MEL-5 melanoma): > 100 µM | TGI (OVCAR-3 ovarian): > 100 µM | TGI (COLO 205 colon): > 100 µM | TGI (HOP-92 NSCLC): > 100 µM | TGI (MDA-MB-435): > 100 µM | TGI (SK-MEL-2 melanoma): > 100 µM | TGI (UACC-257 melanoma): > 100 µM | TGI (LOX IMVI melanoma): > 100 µM | TGI (HCT-116 colon): > 100 µM | TGI (786-0 renal): > 100 µM | TGI (EKVX NSCLC): > 100 µM | TGI (OVCAR-8 ovarian): > 100 µM | TGI (HS 578T breast): > 100 µM | TGI (HCT-15 colon): > 100 µM | TGI (NCI-H23 lung): > 100 µM | TGI (MOLT-4 leukemia): > 100 µM | TGI (SN12C renal): > 100 µM | TGI (ACHN renal): > 100 µM | TGI (HOP-62 NSCLC): > 100 µM | TGI (SF-295 CNS): > 100 µM | TGI (SK-MEL-28 melanoma): > 100 µM | TGI (MDA-N): > 100 µM | TGI (M14 melanoma): > 100 µM | TGI (NCI/ADR-RES ovarian): > 100 µM | TGI (A549 NSCLC): > 100 µM | TGI (IGROV1 ovarian): > 100 µM | TGI (T-47D breast): > 100 µM | TGI (MALME-3M melanoma): > 100 µM | TGI (MCF7 breast): > 100 µM | TGI (SF-268 CNS): > 100 µM | TGI (HL-60(TB) leukemia): > 100 µM | TGI (TK-10 renal): > 100 µM | TGI (SF-539 CNS): > 100 µM | TGI (HT29 colon): > 100 µM | TGI (OVCAR-4 ovarian): > 100 µM | TGI (NCI-H522 lung): > 100 µM | TGI (NCI-H226 lung): > 100 µM | TGI (OVCAR-5 ovarian): > 100 µM | TGI (CCRF-CEM leukemia): > 100 µM | TGI (A498 renal): > 100 µM | TGI (SW-620 colon): > 100 µM | TGI (U251 CNS): > 100 µM | TGI (RPMI-8226 leukemia): > 100 µM | TGI (SNB-19 CNS): > 100 µM | TGI (CAKI-1 renal): > 100 µM | TGI (UO-31 renal): > 100 µM | TGI (SR leukemia): > 100 µM | TGI (KM12 colon): > 100 µM
